Assay results as given in US20250059164A1, “IRAK DEGRADERS AND USES THEREOF” (Kymera Therapeutics, Inc., priority 2023, published 2025).

Biological target: T1, IRAK4 (Homo sapiens, UniProt Q9NWZ3)
T1 construct: endogenous in cells; host or cells: OCI-LY10
T1 sequence (Q9NWZ3 1-460): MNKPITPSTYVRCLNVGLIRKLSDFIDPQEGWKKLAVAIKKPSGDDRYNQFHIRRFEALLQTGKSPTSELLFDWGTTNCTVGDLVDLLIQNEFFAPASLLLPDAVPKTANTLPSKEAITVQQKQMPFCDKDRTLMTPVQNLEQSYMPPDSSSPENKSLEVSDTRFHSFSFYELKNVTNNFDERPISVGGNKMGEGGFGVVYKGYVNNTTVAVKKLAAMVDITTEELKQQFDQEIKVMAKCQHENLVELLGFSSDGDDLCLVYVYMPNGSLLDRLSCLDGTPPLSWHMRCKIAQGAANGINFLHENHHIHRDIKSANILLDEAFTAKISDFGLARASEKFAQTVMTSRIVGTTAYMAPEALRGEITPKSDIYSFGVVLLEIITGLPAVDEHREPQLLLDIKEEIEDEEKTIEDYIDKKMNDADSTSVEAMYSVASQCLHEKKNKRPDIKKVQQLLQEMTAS
Assay: IRAK4 MSD degradation in OCI-LY10
Assay type: cell-based
Details: OCI-LY10 cells, 24 hrs, Meso Scale Discovery
Experimental: Degradation of IRAK4 in OCI-LY10 was quantitatively measured using Meso Scale Discovery technology. […] Compounds were then added to the assay plates with a final top concentration of 1 to 10 μM in a 1:3 dilution series with total of 8 doses. The assay plates were then incubated for 4 to 24 hours at 37° C. under 5% CO2. […] To prepare MSD assay plates (Meso Scale Discovery Catalog number L15XA-3), the plates were coated with 2 μg/mL capture antibody (mouse Anti-IRAK4 antibody [2H9], ab119942) in PBS, at 40 μL/well. […] Cell lysates were then added to MSD assay plates and the plates were incubated at room temperature for 1 hour. The plates were then washed 3 times with 150 μL/well TBST buffer and 25 μL/well primary detection antibody (rabbit Anti-IRAK4 antibody [Y279], from Abcam. Catalog number ab32511, 1 μg/mL). The assay plates were then incubated at room temperature for 1 hour, washed 3 times with 150 μL/well TBST buffer and 25 μL/well secondary detection antibody, SULFO-TAG anti-rabbit antibody were added (anti-rabbit antibody from Meso Scale Discovery, Catalog number R32AB-1, 1 μg/mL). The assay plates were then incubated at room temperature for 1 hour, washed 3 times with 150 μL/well TBST buffer, and 150 μL/well MSD reading buffer (Meso Scale Discovery catalog number R92TC-2) was added. The plates were then analyzed by a MSD reader (Meso Scale Discovery, Model Quick Plex SQ 120). The data was then analyzed by software Prism 7.0 from GraphPad and the dose-depended IRAK4 degradation were fit using a three-parameter logistic equation to calculate DC50.
The letter codes for IRAK4 DC50 include: A (<0.01 μM); B (0.01 to <0.1 μM); C (0.1 to 0.2 μM); D (>0.2 μM) and E (not tested).

DC50 [nM]	Compound
< 10	CN(C[C@H]1C[C@@H](n2cc(NC(=O)c3cnn4ccc(N5C[C@H]6C[C@@H]5CO6)nc34)c(C(F)F)n2)C1)[C@H]1CCN(c2cccc3c2n(C)c(=O)n3C2CCC(=O)NC2=O)C[C@@H]1F (single isomer, unassigned) [I-4]
< 10	CN(C[C@H]1C[C@H](n2cc(NC(=O)c3cnn4ccc(N5C[C@H]6C[C@@H]5CO6)nc34)c(C(F)F)n2)C1)[C@H]1CCN(c2cccc3c2n(C)c(=O)n3C2CCC(=O)NC2=O)C[C@@H]1F (single isomer, unassigned) [I-6]
< 10	Cn1c(=O)n(C2CCC(=O)NC2=O)c2cccc([C@H]3CCN(C[C@H]4CC[C@H](n5cc6cc(NC(=O)c7cccc(C(F)(F)F)n7)ccc6n5)CC4)C[C@@H]3F)c21 (single isomer, unassigned) [I-11]
< 10	Cn1c(=O)n(C2CCC(=O)NC2=O)c2cccc([C@@H]3CCN(C[C@H]4CC[C@H](n5cc6cc(NC(=O)c7cccc(C(F)(F)F)n7)ccc6n5)CC4)C[C@H]3F)c21 (single isomer, unassigned) [I-12]
< 10	CN(C[C@H]1CC[C@H](n2cc(NC(=O)c3cnn4ccc(N5C[C@H]6C[C@@H]5CO6)nc34)c(C(F)F)n2)CC1)[C@@H]1CCN(c2cccc3c2n(C)c(=O)n3C2CCC(=O)NC2=O)C[C@@H]1F (single isomer, unassigned) [I-29]
10 to 100	CN(C[C@H]1CC[C@H](n2cc3cc(NC(=O)c4cccc(C(F)(F)F)n4)ncc3n2)CC1)[C@H]1CCN(c2cccc3c2n(C)c(=O)n3C2CCC(=O)NC2=O)C[C@@H]1F (single isomer, unassigned) [I-36]
< 10	CN(C[C@H]1C[C@H](n2cc(NC(=O)c3cnn4ccc(N5C[C@H]6C[C@@H]5CO6)nc34)c(C(F)F)n2)C1)[C@@H]1CCN(c2cccc3c2n(C)c(=O)n3C2CCC(=O)NC2=O)C[C@@H]1F (single isomer, unassigned) [I-59]
< 10	CN(C[C@H]1C[C@H](n2cc(NC(=O)c3cnn4ccc(N5C[C@H]6C[C@@H]5CO6)nc34)c(C(F)F)n2)C1)[C@H]1CCN(c2cccc3c2n(C)c(=O)n3C2CCC(=O)NC2=O)C[C@H]1F (single isomer, unassigned) [I-60]
10 to 100	O=C1CCC(Nc2ccc(N3CC(CO[C@@H]4CCN(C[C@H]5CC[C@H](n6cc(NC(=O)c7cnn8ccc(N9C[C@H]%10C[C@@H]9CO%10)nc78)c(C(F)F)n6)CC5)C[C@@H]4F)C3)cc2)C(=O)N1 (single isomer, unassigned) [I-73]
10 to 100	O=C1CCN(c2cncc3c(N4CC(CO[C@H]5CCN(C[C@H]6CC[C@H](n7cc(NC(=O)c8cnn9ccc(N%10C[C@H]%11C[C@@H]%10CO%11)nc89)c(C(F)F)n7)CC6)C[C@@H]5F)C4)cccc23)C(=O)N1 (single isomer, unassigned) [I-75]
100 to 200	COc1cc2nc([C@H]3CC[C@H](CN4CC[C@@H](c5cccc6c5n(C)c(=O)n6C5CCC(=O)NC5=O)[C@H](F)C4)CC3)sc2cc1NC(=O)c1cccc(C(F)(F)F)n1 (single isomer, unassigned) [I-78]
> 200	COc1cc2nc([C@H]3CC[C@H](CN4CC[C@H](c5cccc6c5n(C)c(=O)n6C5CCC(=O)NC5=O)[C@@H](F)C4)CC3)sc2cc1NC(=O)c1cccc(C(F)(F)F)n1 (single isomer, unassigned) [I-79]
10 to 100	O=C1CCC(Nc2ccc(N3CC(CO[C@H]4CCN(C[C@H]5CC[C@H](n6cc(NC(=O)c7cnn8ccc(N9C[C@H]%10C[C@@H]9CO%10)nc78)c(C(F)F)n6)CC5)C[C@@H]4F)C3)cc2)C(=O)N1 (single isomer, unassigned) [I-85]
> 200	COc1cc2nc([C@H]3CC[C@H](CN4CC[C@H](c5cccc6c5n(C)c(=O)n6C5CCC(=O)NC5=O)[C@@H](F)C4)CC3)oc2cc1NC(=O)c1cccc(C(F)(F)F)n1 (single isomer, unassigned) [I-89]
< 10	Cn1c(=O)n(C2CCC(=O)NC2=O)c2cccc([C@@H]3CCN(C[C@H]4CC[C@H](n5cc6cc(NC(=O)c7cccc(C(F)(F)F)n7)c(C#N)cc6n5)CC4)C[C@H]3F)c21 (single isomer, unassigned) [I-95]
< 10	Cn1c(=O)n(C2CCC(=O)NC2=O)c2cccc([C@H]3CCN(C[C@H]4CC[C@H](n5cc6cc(NC(=O)c7cccc(C(F)(F)F)n7)c(C#N)cc6n5)CC4)C[C@@H]3F)c21 (single isomer, unassigned) [I-96]

DC50 [nM]	Compound
10 to 100	COc1cc2nc([C@H]3CC[C@H](CN(C)[C@@H]4CCN(c5cccc6c5n(C)c(=O)n6C5CCC(=O)NC5=O)C[C@H]4F)CC3)sc2cc1NC(=O)c1cccc(C(F)(F)F)n1 (single isomer, unassigned) [I-98]
< 10	COc1cc2nc([C@H]3CC[C@H](CN(C)[C@@H]4CCN(c5cccc6c5n(C)c(=O)n6C5CCC(=O)NC5=O)C[C@@H]4F)CC3)sc2cc1NC(=O)c1cccc(C(F)(F)F)n1 (single isomer, unassigned) [I-99]
< 10	COc1cc2nn([C@H]3CC[C@H](CN4CC[C@H](c5cccc6c5n(C)c(=O)n6C5CCC(=O)NC5=O)[C@@H](F)C4)CC3)cc2cc1NC(=O)c1cncc(C#N)c1 (single isomer, unassigned) [I-100]
< 10	COc1cc2nn([C@H]3CC[C@H](CN4CC[C@@H](c5cccc6c5n(C)c(=O)n6C5CCC(=O)NC5=O)[C@H](F)C4)CC3)cc2cc1NC(=O)c1cncc(C#N)c1 (single isomer, unassigned) [I-101]
10 to 100	COc1cc2nc([C@H]3CC[C@H](CN4CC[C@@H](c5cccc6c5n(C)c(=O)n6C5CCC(=O)NC5=O)[C@H](F)C4)CC3)oc2cc1NC(=O)c1cccc(C(F)(F)F)n1 (single isomer, unassigned) [I-121]
< 10	CN(C[C@H]1CC[C@H](n2cc(NC(=O)c3cnn4ccc(N5C[C@H]6C[C@@H]5CO6)nc34)c(C(F)F)n2)CC1)[C@H]1CCN(c2cccc3c2n(C)c(=O)n3[C@@H]2CCC(=O)NC2=O)C[C@@H]1F (single isomer, unassigned) [I-143]
< 10	CN(C[C@H]1CC[C@H](n2cc(NC(=O)c3cnn4ccc(N5C[C@H]6C[C@@H]5CO6)nc34)c(C(F)F)n2)CC1)[C@H]1CCN(c2cccc3c2n(C)c(=O)n3[C@H]2CCC(=O)NC2=O)C[C@@H]1F (single isomer, unassigned) [I-144]
< 10	CN(C[C@H]1CC[C@H](n2cc(NC(=O)c3cnn4cccnc34)c(C(F)F)n2)CC1)[C@H]1CCN(c2cccc3c2n(C)c(=O)n3C2CCC(=O)NC2=O)C[C@H]1F (single isomer, unassigned) [I-145]
< 10	COc1ccc2c(c1N1CC[C@H](N(C)C[C@H]3CC[C@H](n4cc(NC(=O)c5cnn6cccnc56)c(C(F)F)n4)CC3)[C@@H](F)C1)n(C)c(=O)n2C1CCC(=O)NC1=O (single isomer, unassigned) [I-146]
< 10	COc1ccc2c(c1N1CC[C@H](N(C)C[C@H]3CC[C@H](n4cc(NC(=O)c5cnn6cccnc56)c(C(F)F)n4)CC3)[C@H](F)C1)n(C)c(=O)n2C1CCC(=O)NC1=O (single isomer, unassigned) [I-147]
< 10	COc1ccc2c(c1N1CC[C@@H](N(C)C[C@H]3CC[C@H](n4cc(NC(=O)c5cnn6cccnc56)c(C(F)F)n4)CC3)[C@H](F)C1)n(C)c(=O)n2C1CCC(=O)NC1=O (single isomer, unassigned) [I-152]
< 10	COc1ccc2c(c1N1CC[C@@H](N(C)C[C@H]3CC[C@H](n4cc(NC(=O)c5cnn6cccnc56)c(C(F)F)n4)CC3)[C@@H](F)C1)n(C)c(=O)n2C1CCC(=O)NC1=O (single isomer, unassigned) [I-153]
< 10	Cn1c(=O)n(C2CCC(=O)NC2=O)c2cccc([C@@H]3CCN(C[C@H]4CC[C@H](n5cc6cc(NC(=O)c7cncc(C(F)(F)F)n7)ccc6n5)CC4)CC3(F)F)c21 (single isomer, unassigned) [I-179]
10 to 100	COc1ccc2c(c1N1CC[C@@H](N(C)C[C@H]3CC[C@H](n4cc(NC(=O)c5cnn6cccnc56)c(C(F)F)n4)CC3)C(F)(F)C1)n(C)c(=O)n2C1CCC(=O)NC1=O (single isomer, unassigned) [I-204]
> 200	CN(C[C@H]1CC[C@H](c2cc3cc(NC(=O)c4cncc(C(F)(F)F)n4)ccn3n2)CC1)[C@@H]1CCN(c2cccc3c2n(C)c(=O)n3C2CCC(=O)NC2=O)C[C@@H]1F (single isomer, unassigned) [I-211]
